In ChEMBL document CHEMBL2046331, “Lead optimization of a sulfonylurea-based piperazine pyridazinone series of glucan synthase inhibitors” (Bioorg Med Chem Lett, 2012):
pIC50: −log10 of the molar value. ≈ marks a conversion by molar mass, not a printed value. Calls of active or inactive are those of the source. The rule behind the calls is not given here.

What was measured:
[1] = test system: Candida albicans; assay: Antifungal activity against Candida albicans C43 by broth dilution method; format: functional; settings: read-out: MIC100
[2] = Clearance in human hepatocytes assessed per million cells; format: ADME, cell-based, Hepatocyte; settings: read-out: CLH
[3] = test system: Aspergillus fumigatus; assay: Antifungal activity against Aspergillus fumigatus ND158 by broth dilution method; format: functional; settings: read-out: MEC
[4] = test system: Nakaseomyces glabratus; assay: Antifungal activity against Candida glabrata C624 by broth dilution method; format: functional; settings: read-out: MIC100
[5] = test system: Candida albicans; assay: Antifungal activity against Candida albicans C375 by broth dilution method; format: functional; settings: read-out: MIC100
[6] = test system: Candida albicans; assay: Antifungal activity against Candida albicans C693 by broth dilution method; format: functional; settings: read-out: MIC100
[7] = target: T1, Beta-1,3-glucan synthase (Candida albicans, UniProt O13383); assay: Inhibition of glucan synthase in Candida albicans BWP17 membrane; format: cell membranes
T1 sequence (O13383 whole entry): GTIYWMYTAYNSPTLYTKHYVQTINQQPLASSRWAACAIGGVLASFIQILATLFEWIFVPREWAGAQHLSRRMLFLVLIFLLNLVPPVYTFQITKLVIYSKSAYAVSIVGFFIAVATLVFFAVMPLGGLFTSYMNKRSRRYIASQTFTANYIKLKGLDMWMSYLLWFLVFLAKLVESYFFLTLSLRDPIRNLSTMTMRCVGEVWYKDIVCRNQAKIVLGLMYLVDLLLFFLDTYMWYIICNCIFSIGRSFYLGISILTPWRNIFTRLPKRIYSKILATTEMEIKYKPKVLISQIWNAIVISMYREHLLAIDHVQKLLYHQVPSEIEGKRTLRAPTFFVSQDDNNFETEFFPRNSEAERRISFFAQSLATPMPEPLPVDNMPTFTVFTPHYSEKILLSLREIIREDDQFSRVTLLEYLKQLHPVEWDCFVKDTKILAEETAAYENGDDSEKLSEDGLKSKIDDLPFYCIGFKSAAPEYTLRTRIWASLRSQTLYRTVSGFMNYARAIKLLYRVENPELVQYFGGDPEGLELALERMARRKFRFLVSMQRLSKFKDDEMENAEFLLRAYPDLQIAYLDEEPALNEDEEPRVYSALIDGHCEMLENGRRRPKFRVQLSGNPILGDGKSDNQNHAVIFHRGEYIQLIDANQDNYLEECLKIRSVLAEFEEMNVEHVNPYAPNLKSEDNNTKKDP

[8] = AUC (0 to 6 hrs) in rat at 10 mg/kg, po; format: ADME, organism-based; parameters: time < 6 hr, dose 10 mg/kg, route oral; settings: plasma
[9] = Clearance in rat hepatocytes assessed per million cells; format: ADME, cell-based, Hepatocyte; settings: read-out: CLH
[10] = test system: Candida albicans; assay: Antifungal activity against Candida albicans C43 by broth dilution method in presence of 25% human serum; format: functional; settings: read-out: MIC100
[11] = test system: Candida albicans; assay: Antifungal activity against Candida albicans C43 systemically infected in mouse assessed as reduction in fungal burden in kidney at 100 mg/kg, ip administered daily for 4 days relative to vehicle treated control; format: functional, organism-based; parameters: dose 100 mg/kg
[12] = test system: Candida albicans; assay: Antifungal activity against Candida albicans C43 systemically infected in mouse assessed as reduction in fungal burden in kidney at 100 mg/kg, ip administered daily for 4 days relative to caspofungin; format: functional, organism-based; parameters: dose 100 mg/kg

SMILES	MIC [1] [µg/mL]	hepatocyte CLint [2] [µL/min/1e6 cells]	MIC [4] [µg/mL]	MIC [5] [µg/mL]	MIC [6] [µg/mL]	pIC50 [7]	AUC(0-t) at 6 h [8] [ng·h/mL]	hepatocyte CLint [9] [µL/min/1e6 cells]	MIC [10] [µg/mL]	minimal effective concentration [3] [µg/mL]	Activity [11]	Activity [12]
CC1(CO/C(C(=O)Nc2cccc(Cl)c2)=C(/C=N)N2CCN(S(=O)(=O)NCc3nc4cc(Cl)ccc4o3)CC2)CC1			0.52 (≈ 0.837 µM)		2.08 (≈ 3.35 µM)	5.88						
CC1(CO/C(C(=O)Nc2cccc(Cl)c2)=C(/C=N)N2CCN(S(=O)(=O)NCc3nc4ccccc4s3)CC2)CC1			0.26 (≈ 0.431 µM)		0.26 (≈ 0.431 µM)	6.40						
N=C/C(=C(/OC1CCCC1)C(=O)Nc1cccc(Cl)c1)N1CCN(S(=O)(=O)Nc2ccccc2)CC1			0.16 (≈ 0.301 µM)		> 25	6.93						
CN(C)S(=O)(=O)N1CCN(/C(C=N)=C(\OC2CCCC2)C(=O)Nc2cccc(Cl)c2)CC1			0.1 (≈ 0.207 µM)		6.25 (≈ 12.9 µM)	5.72						
CC1(CO/C(C(=O)Nc2cccc(Cl)c2)=C(/C=N)N2CCN(S(=O)(=O)NCc3cccnc3)CC2)CC1			2.08 (≈ 3.8 µM)		1.04 (≈ 1.9 µM)	6.70						
CC(NS(=O)(=O)N1CCN(/C(C=N)=C(\OCC2(C)CC2)C(=O)Nc2cccc(Cl)c2)CC1)c1cccc(N)c1 (stereo not drawn)	4.17 (≈ 7.25 µM)		1.04 (≈ 1.81 µM)	8.35 (≈ 14.5 µM)	1.04 (≈ 1.81 µM)	6.28	1300			16.7		
CC(C)NS(=O)(=O)N1CCN(/C(C=N)=C(\OC2CCCC2)C(=O)Nc2cccc(Cl)c2)CC1			0.03 (≈ 0.0602 µM)		0.52 (≈ 1.04 µM)	6.44						
CC1(CO/C(C(=O)Nc2cccc(Cl)c2)=C(/C=N)N2CCN(S(=O)(=O)NCc3ccccc3)CC2)CC1			2.08 (≈ 3.81 µM)		> 33	5.27						
N=C/C(=C(/OC1CCCC1)C(=O)Nc1cccc(Cl)c1)N1CCN(S(=O)(=O)NCc2ccccc2)CC1			< 0.02		0.03 (≈ 0.0549 µM)	7.06						
N=C/C(=C(/OC1CCCC1)C(=O)Nc1cccc(Cl)c1)N1CCN(S(=O)(=O)N2CCOCC2)CC1			0.39 (≈ 0.741 µM)		25 (≈ 47.5 µM)	5.54						
CC1(CO/C(C(=O)Nc2cccc(Cl)c2)=C(/C=N)N2CCN(S(=O)(=O)NCc3ccnc(N)c3)CC2)CC1	16.7 (≈ 29.7 µM)		2.08 (≈ 3.7 µM)	> 33	8.35 (≈ 14.9 µM)	6.39	50			16.7		
COc1cc(CNS(=O)(=O)N2CCN(/C(C=N)=C(\OCC3(C)CC3)C(=O)Nc3cccc(Cl)c3)CC2)ccc1N	1.04 (≈ 1.76 µM)		0.52 (≈ 0.88 µM)	4.17 (≈ 7.05 µM)	0.52 (≈ 0.88 µM)	6.80	860	12.6	4.17	4.17	inactive	inactive
CCN(CC)S(=O)(=O)N1CCN(/C(C=N)=C(\OC2CCCC2)C(=O)Nc2cccc(Cl)c2)CC1			0.2 (≈ 0.391 µM)		6.25 (≈ 12.2 µM)	6.20						

Now from value to compound, other results behind:

MIC [1] [µg/mL]	hepatocyte CLint [2] [µL/min/1e6 cells]	MIC [4] [µg/mL]	MIC [5] [µg/mL]	MIC [6] [µg/mL]	pIC50 [7]	AUC(0-t) at 6 h [8] [ng·h/mL]	hepatocyte CLint [9] [µL/min/1e6 cells]	MIC [10] [µg/mL]	SMILES	minimal effective concentration [3] [µg/mL]	Activity [11]	Activity [12]
0.52 (≈ 0.904 µM)	13.4	0.52 (≈ 0.904 µM)	2.08 (≈ 3.62 µM)	0.26 (≈ 0.452 µM)	6.97	900			Cc1cc(CNS(=O)(=O)N2CCN(/C(C=N)=C(\OCC3(C)CC3)C(=O)Nc3cccc(Cl)c3)CC2)ccc1N	2.08		
		0.39 (≈ 0.762 µM)		10 (≈ 19.5 µM)	5.84				CC(C)N(C)S(=O)(=O)N1CCN(/C(C=N)=C(\OC2CCCC2)C(=O)Nc2cccc(Cl)c2)CC1			
0.52 (≈ 0.904 µM)	19.6	0.26 (≈ 0.452 µM)	2.08 (≈ 3.62 µM)	0.26 (≈ 0.452 µM)	6.90	1410			Cc1ccc(CNS(=O)(=O)N2CCN(/C(C=N)=C(\OCC3(C)CC3)C(=O)Nc3cccc(Cl)c3)CC2)cc1N	1.04		
		16.7 (≈ 36.6 µM)		> 33	4.38				N=C/C(=C(/OC1CCCC1)C(=O)Nc1cccc(Cl)c1)N1CCN(S(N)(=O)=O)CC1			
0.52 (≈ 0.88 µM)		0.52 (≈ 0.88 µM)	4.17 (≈ 7.05 µM)	0.26 (≈ 0.44 µM)	6.63	440	15	2.08	COc1ccc(CNS(=O)(=O)N2CCN(/C(C=N)=C(\OCC3(C)CC3)C(=O)Nc3cccc(Cl)c3)CC2)cc1N	4.17		
						2580			Cc1ccc(CNS(=O)(=O)N2CCN(/C(C=N)=C(\OC3CCC(F)C3)C(=O)Nc3cc(F)cc(F)c3)CC2)cc1N (mixture of isomers)			
		0.06 (≈ 0.0972 µM)		0.52 (≈ 0.843 µM)	7.01				Cc1nc2ccc(CNS(=O)(=O)N3CCN(/C(C=N)=C(\OCC4(C)CC4)C(=O)Nc4cccc(Cl)c4)CC3)cc2s1			
0.13 (≈ 0.224 µM)		0.13 (≈ 0.224 µM)	0.52 (≈ 0.898 µM)	0.06 (≈ 0.104 µM)	6.96		12.7	1.04	CC1(CO/C(C(=O)Nc2cccc(Cl)c2)=C(/C=N)N2CCN(S(=O)(=O)NCc3ccc(N)c(F)c3)CC2)CC1	1.04		
		0.13 (≈ 0.215 µM)		0.52 (≈ 0.861 µM)	6.28				COC(=O)c1ccc(CNS(=O)(=O)N2CCN(/C(C=N)=C(\OCC3(C)CC3)C(=O)Nc3cccc(Cl)c3)CC2)cc1			
2.08 (≈ 3.59 µM)		0.52 (≈ 0.898 µM)	4.17 (≈ 7.2 µM)	0.52 (≈ 0.898 µM)	6.53				CC1(CO/C(C(=O)Nc2cccc(Cl)c2)=C(/C=N)N2CCN(S(=O)(=O)NCc3ccc(F)c(N)c3)CC2)CC1	2.08		
		0.06 (≈ 0.099 µM)		0.26 (≈ 0.429 µM)	6.53				COc1ccc(CNS(=O)(=O)N2CCN(/C(C=N)=C(\OCC3(C)CC3)C(=O)Nc3cccc(Cl)c3)CC2)cc1OC			
		2.08 (≈ 3.8 µM)		0.52 (≈ 0.95 µM)	7.04				CC1(CO/C(C(=O)Nc2cccc(Cl)c2)=C(/C=N)N2CCN(S(=O)(=O)NCc3ccncc3)CC2)CC1			
